Experimental data taken from patent US9255295B2, “Method for evaluating the sensitizing potential of a test compound” (IMMUNOSEARCH, priority 2010, dated 2016).
Like-named read-outs stand apart in the source and are kept apart here.

Key:
[1] = official classification: non-sensitizer, irritant, or sensitizing Extreme/Strong/Moderate/Weak; cited from earlier work
[2] = system: genes specific for sensitization (BRAK, CTSS, DAPK2, FABP4, HSP27, IL18, HSP90, IL1R2, TPSAB1, CXCR1, DEFB1, DHFR, EHF, IVL, KRT4, MELANA, NGAL, PDZK1IP1, PI3 …); assay: Expression of the other (non-ARE) sensitization-specific genes in EPISKIN reconstructed skin (quantitative RT-PCR); type: cell-based, human; conditions: for BRAK expression / CTSS expression / CXCR1 expression / DAPK2 expression / DEFB1 expression / DHFR expression / EHF expression / FABP4 expression / HSP27 expression / HSP90 expression / IL18 expression / IVL expression / KRT4 expression / MELANA expression / NGAL expression / P13 expression / PDZK1iP1 expression / SERPINB3 expression: compared to the control;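 for CTSS NUMBER OF GENES grade: grade scored against expression in the control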;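 for CXCR1 NUMBER OF GENES grade: grade scored against expression in the control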;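 for DAPK2 NUMBER OF GENES grade: grade scored against expression in the control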
[3] = system: ARE gene family (AKR1B10, AKR1C1, AKR1C2, CYP1B1, FTH1P, FTL, G6PD, GCLM, NQO2, SLC7A11, TXNRD1, UGT1A1, UGT1A9, YWHAZ, CD36, CYP1A1, GCLC, HMOX1, NQO1, PSME2 …); conditions: human, 6 h

SMILES: N#CCCC(Br)(C#N)CBr (centres unmarked) [2-Bromo-2-(bromomethyl)glutaronitrile]
- Class [1]: S

SMILES: O=CCCCC=O [Glutaraldehyde]
- Class [1]: S

SMILES: CC(O)C(=O)O (centres unmarked) [Lactic acid (cys pos), Lactic acid]
- BRAK NUMBER OF GENES grade ([2]; 1%): 0 (if this expression is lower, the grade is 0)
- CTSS NUMBER OF GENES grade ([2]; 1%): 0 (if this expression is lower, the grade is 0)
- CXCR1 NUMBER OF GENES grade ([2]; 1%): 0 (if this expression is lower, the grade is 0)
- DAPK2 NUMBER OF GENES grade ([2]; 1%): 0 (if this expression is lower, the grade is 0)
- DEFB1 NUMBER OF GENES grade ([2]; 1%): 0 (if this expression is lower, the grade is 0)
- DHFR NUMBER OF GENES grade ([2]; 1%): 0 (if this expression is lower, the grade is 0)
- EHF NUMBER OF GENES grade ([2]; 1%): 0 (if this expression is lower, the grade is 0)
- FABP4 NUMBER OF GENES grade ([2]; 1%): 0 (if this expression is lower, the grade is 0)
- HSP27 NUMBER OF GENES grade ([2]; 1%): 0 (if this expression is lower, the grade is 0)
- HSP90 NUMBER OF GENES grade ([2]; 1%): 0 (if this expression is lower, the grade is 0)
- IL18 NUMBER OF GENES grade ([2]; 1%): 0 (if this expression is lower, the grade is 0)
- IVL NUMBER OF GENES grade ([2]; 1%): 0 (if this expression is lower, the grade is 0)
- KRT4 NUMBER OF GENES grade ([2]; 1%): 0 (if this expression is lower, the grade is 0)
- MELANA NUMBER OF GENES grade ([2]; 1%): 0 (if this expression is lower, the grade is 0)
- NGAL NUMBER OF GENES grade ([2]; 1%): 0 (if this expression is lower, the grade is 0)
- P13 NUMBER OF GENES grade ([2]; 1%): 0 (if this expression is lower, the grade is 0)
- PDZK1iP1 NUMBER OF GENES grade ([2]; 1%): 0 (if this expression is lower, the grade is 0)
- SERPINB3 NUMBER OF GENES grade ([2]; 1%): 0 (if this expression is lower, the grade is 0)
- TOTAL SENS (number of genes) ([2]; 1%): 0
- BRAK expression ([2]; 1%): 0.8
- CTSS expression ([2]; 1%): 1.0
- CXCR1 expression ([2]; 1%): 0.7
- DAPK2 expression ([2]; 1%): 1.2
- DEFB1 expression ([2]; 1%): 0.9
- DHFR expression ([2]; 1%): 0.9
- EHF expression ([2]; 1%): 0.9
- FABP4 expression ([2]; 1%): 0.7
- HSP27 expression ([2]; 1%): 1.0
- HSP90 expression ([2]; 1%): 1.0
- IL18 expression ([2]; 1%): 0.9
- IVL expression ([2]; 1%): 1.0
- KRT4 expression ([2]; 1%): 0.9
- MELANA expression ([2]; 1%): 0.7
- NGAL expression ([2]; 1%): 0.9
- P13 expression ([2]; 1%): 0.8
- PDZK1iP1 expression ([2]; 1%): 1.0
- SERPINB3 expression ([2]; 1%): 0.9
- BRAK NUMBER OF GENES grade ([2]; 10%): 0 (if this expression is lower, the grade is 0)
- CTSS NUMBER OF GENES grade ([2]; 10%): 0 (if this expression is lower, the grade is 0)
- CXCR1 NUMBER OF GENES grade ([2]; 10%): 0 (if this expression is lower, the grade is 0)
- DAPK2 NUMBER OF GENES grade ([2]; 10%): 0 (if this expression is lower, the grade is 0)
- DEFB1 NUMBER OF GENES grade ([2]; 10%): 0 (if this expression is lower, the grade is 0)
- DHFR NUMBER OF GENES grade ([2]; 10%): 0 (if this expression is lower, the grade is 0)
- EHF NUMBER OF GENES grade ([2]; 10%): 0 (if this expression is lower, the grade is 0)
- FABP4 NUMBER OF GENES grade ([2]; 10%): 0 (if this expression is lower, the grade is 0)
- HSP27 NUMBER OF GENES grade ([2]; 10%): 0 (if this expression is lower, the grade is 0)
- HSP90 NUMBER OF GENES grade ([2]; 10%): 0 (if this expression is lower, the grade is 0)
- IL18 NUMBER OF GENES grade ([2]; 10%): 0 (if this expression is lower, the grade is 0)
- IVL NUMBER OF GENES grade ([2]; 10%): 0 (if this expression is lower, the grade is 0)
- KRT4 NUMBER OF GENES grade ([2]; 10%): 0 (if this expression is lower, the grade is 0)
- MELANA NUMBER OF GENES grade ([2]; 10%): 0 (if this expression is lower, the grade is 0)
- NGAL NUMBER OF GENES grade ([2]; 10%): 0 (if this expression is lower, the grade is 0)
- P13 NUMBER OF GENES grade ([2]; 10%): 0 (if this expression is lower, the grade is 0)
- PDZK1iP1 NUMBER OF GENES grade ([2]; 10%): 0 (if this expression is lower, the grade is 0)
- SERPINB3 NUMBER OF GENES grade ([2]; 10%): 0 (if this expression is lower, the grade is 0)
- TOTAL SENS (number of genes) ([2]; 10%): 0
- BRAK expression ([2]; 10%): 1.0
- CTSS expression ([2]; 10%): 1.1
- CXCR1 expression ([2]; 10%): 0.7
- DAPK2 expression ([2]; 10%): 1.1
- DEFB1 expression ([2]; 10%): 1.0
- DHFR expression ([2]; 10%): 1.0
- EHF expression ([2]; 10%): 0.9
- FABP4 expression ([2]; 10%): 0.9
- HSP27 expression ([2]; 10%): 0.9
- HSP90 expression ([2]; 10%): 0.9
- IL18 expression ([2]; 10%): 1.0
- IVL expression ([2]; 10%): 0.9
- KRT4 expression ([2]; 10%): 0.8
- MELANA expression ([2]; 10%): 0.8
- NGAL expression ([2]; 10%): 1.0
- P13 expression ([2]; 10%): 0.8
- PDZK1iP1 expression ([2]; 10%): 1.0
- SERPINB3 expression ([2]; 10%): 1.1
- BRAK NUMBER OF GENES grade ([2]; 50%): 0 (if this expression is lower, the grade is 0)
- CTSS NUMBER OF GENES grade ([2]; 50%): 1 (If the expression is greater than 1.3 compared to the control, a grade of 11s given)
- CXCR1 NUMBER OF GENES grade ([2]; 50%): 0 (if this expression is lower, the grade is 0)
- DAPK2 NUMBER OF GENES grade ([2]; 50%): 0 (if this expression is lower, the grade is 0)
- DEFB1 NUMBER OF GENES grade ([2]; 50%): 0 (if this expression is lower, the grade is 0)
- DHFR NUMBER OF GENES grade ([2]; 50%): 0 (if this expression is lower, the grade is 0)
- EHF NUMBER OF GENES grade ([2]; 50%): 0 (if this expression is lower, the grade is 0)
- FABP4 NUMBER OF GENES grade ([2]; 50%): 0 (if this expression is lower, the grade is 0)
- HSP27 NUMBER OF GENES grade ([2]; 50%): 0 (if this expression is lower, the grade is 0)
- HSP90 NUMBER OF GENES grade ([2]; 50%): 0 (if this expression is lower, the grade is 0)
- IL18 NUMBER OF GENES grade ([2]; 50%): 0 (if this expression is lower, the grade is 0)
- IVL NUMBER OF GENES grade ([2]; 50%): 0 (if this expression is lower, the grade is 0)
- KRT4 NUMBER OF GENES grade ([2]; 50%): 0 (if this expression is lower, the grade is 0)
- MELANA NUMBER OF GENES grade ([2]; 50%): 0 (if this expression is lower, the grade is 0)
- NGAL NUMBER OF GENES grade ([2]; 50%): 0 (if this expression is lower, the grade is 0)
- P13 NUMBER OF GENES grade ([2]; 50%): 0 (if this expression is lower, the grade is 0)
- PDZK1iP1 NUMBER OF GENES grade ([2]; 50%): 0 (if this expression is lower, the grade is 0)
- SERPINB3 NUMBER OF GENES grade ([2]; 50%): 0 (if this expression is lower, the grade is 0)
- TOTAL SENS (number of genes) ([2]; 50%): 1
- BRAK expression ([2]; 50%): 0.7
- CTSS expression ([2]; 50%): 1.4
- CXCR1 expression ([2]; 50%): 0.8
- DAPK2 expression ([2]; 50%): 1.1
- DEFB1 expression ([2]; 50%): 1.1
- DHFR expression ([2]; 50%): 0.9
- EHF expression ([2]; 50%): 0.9
- FABP4 expression ([2]; 50%): 0.8
- HSP27 expression ([2]; 50%): 0.8
- HSP90 expression ([2]; 50%): 0.9
- IL18 expression ([2]; 50%): 0.8
- IVL expression ([2]; 50%): 0.9
- KRT4 expression ([2]; 50%): 0.8
- MELANA expression ([2]; 50%): 0.6
- NGAL expression ([2]; 50%): 1.0
- P13 expression ([2]; 50%): 0.9
- PDZK1iP1 expression ([2]; 50%): 1.0
- SERPINB3 expression ([2]; 50%): 1.2
- CD36 expression ([3]; 1 %): 1.1
- S100A8 expression ([3]; 1 %): 0.8
- CD36 expression ([3]; 10 %): 1.1
- S100A8 expression ([3]; 10 %): 1.0
- CD36 expression ([3]; 50 %): 0.9
- S100A8 expression ([3]; 50 %): 1.1
